Where a SMILES comes first, the peptide text is derived from it. [ ]: non-standard residue; d: D form. The star is where a group is joined. X1 = CC(C)CCC[C@@H](C)[C@H]1CC[C@H]2[C@@H]3CC[C@H]4C[C@@H](O*)CC[C@]4(C)[C@H]3CC[C@]12C; PEG4 = NCCOCCOCCOCCOCCC(=O)O; PEG3 = NCCOCCOCCOCCC(=O)O
How the values were obtained:
[1] = system: capsaicin-evoked mechanical hyperalgesia in mice; settings: mouse, in vivo
Procedure: To evaluate the importance of NK1R, clathrin and dynamin, mice (C57BL/6, male, 6-10 weeks) were injected intrathecally (L3/L4) with vehicle, NK1R antagonist SR140,333, Dy4, Dy4 inact, PS2 or PS2 inact. After 30 min, intraplantar injections of vehicle or capsaicin were made into the left hindpaw. Mechanical hyperalgesia was measured by stimulation of the plantar surface of the left and right paws with von Frey filaments, and inflammatory edema was assessed by measuring left paw thickness with calipers.
Mice were acclimatized to the experimental apparatus and environment for 1-2 h on 2 successive days before experiments. Mechanical hyperalgesia was assessed by paw withdrawal to stimulation of the plantar surface of the hind-paw with graded von Frey filaments. On the day before the study, von Frey scores were measured in triplicate to establish a baseline for each animal. To assess edema of the paw, hindpaw thickness was measured using digital calipers before and after treatments. […] Capsaicin (5 μg), Complete Freund's Adjuvant (CFA, 2 mg/ml), or vehicle (capsaicin, 20% ethanol, 10% Tween 80, 70% saline; CFA, saline) was injected subcutaneously into the plantar surface of the left hindpaw (10 μl). von Frey scores (left and right paws) and paw thickness (left paw) were measured for 30-240 min after capsaicin, and 36-40 h after injection of CFA. […]

[2] = system: NK1R-positive neurons in lamina I of the dorsal horn; assay: Cell-attached patch clamp recordings in rat spinal cord slices; type: cell-based
Procedure: To evaluate whether NK1R endosomal signaling mediates this sustained activation, cell-attached patch clamp recordings were made from NKiR-positive neurons in lamina I of the dorsal horn in slices of rat spinal cord. […] These findings support a role for NK1R endocytosis in persistent neuronal excitation.
Parasagittal slices (340-400 μm) were prepared using a vibratome from the lumbar region of the rat spinal cord in ice-cold sucrose-based artificial CSF (sACSF) (mM: 100 sucrose, 63 NaCl, 2.5 KCl, 1.2 NaH2PO4, 1.2 MgCl2, 25 glucose, 25 NaHCO3; 95% O2/5% CO2). Slices were transferred to N-Methyl-D-Glucamine (NMDG)-based recovery ACSF (rACSF) (mM: 93 NMDG, 93 HCl, 2.5 KCl, 1.2 NaH2PO4, 30 NaHCO3, 20 HEPES, 25 glucose, 5 Na ascorbate, 2 thiourea, 3 Na pyruvate, 10 MgSO4, 0.5 CaCl2; 95% O2/5% CO2, 15 min, 34° C.). Slices were transferred to normal ACSF (mM: 125 NaCl, 2.5 KCl, 1.25 NaH2PO4, 1.2 MgCl2, 2.5 CaCl2, 25 glucose, 11 NaHCO3; 95% O2/5% CO2) containing 10 μM MK-801 (45 min, 34° C.), then maintained at RT.
Slices of rat spinal cord were transferred to a recording chamber and superfused with normal ACSF (2 ml·min^−1, 36° C.). […] PS2 was not soluble in the low concentrations of DMSO required for electrophysiology. Large, NKiR-positive, presumed nociceptive lamina I neurons were visually identified as described (Imlach, W. L., et al., Molecular Pharmacology, 2015, 88, 460-428). Spontaneous currents were recorded in cell-attached configuration (Multiclamp 700B, Molecular Devices, Sunnyvale, Calif.), sampled at 10 kHz, high pass filtered at 1 Hz, and capacitatively coupled action potential events were analyzed using Axograph X, V 1.4.4 (Axograph). Patch electrodes (resistance 2.5-3.5 MQ) contained KMES-based internal solution (mM: 105 KMES, 20 NaCl, 5 HEPES, 10 BAPTA, 1.5 MgCl2, 4 MgATP, 0.4 NaGTP, 0.1% biocytin; 285-295 mosmol·l^−1) to facilitate subsequent recordings of action potential properties in whole-cell configuration. Recordings were made in the presence of CNQX (6-cyano-7-nitroquinoxaline-2,3-dione) (10 μM; AMPA/kainate receptor antagonist), picrotoxin (100 μM; GABAA receptor antagonist), strychnine (0.5 μM; glycine and acetylcholine receptor antagonist), and AP5 ((2R)-amino-5-phosphonovaleric acid; (2R)-amino-5-phosphonopentanoate) (100 μM; NMDA receptor antagonist) to minimize presynaptic influences on action potential properties. […] Recordings were sampled at 10 kHz and filtered with a high pass filter at 1 Hz and firing rate was measured in two-minute interval bins. At the end of each cell-attached recording, whole-cell recordings were made in current-clamp mode to confirm retention of normal action potential firing. Data were only included in the analysis if cells had action potential amplitudes that were ≥50 mV above threshold to ensure viable neurons were included. Cells were filled with biocytin and sections were processed to confirm NK1R expression by immunofluorescence. […] The firing time was determined as the duration of the response to last action potential. To assess synaptic transmission, whole-cell configuration recordings were made under control conditions or after exposure to Dy4 or Dy4 inact; a bipolar stimulating electrode was placed at the dorsal root entry zone, and electrically-evoked excitatory postsynaptic currents recorded as described (Imlach, W. L., et al., Molecular Pharmacology, 2015, 88, 460-428).

β2-adrenergic receptor = target: T1, β2-adrenergic receptor (Homo sapiens, UniProt P07550); assay: FRET nuclear ERK biosensor, isoprenaline-induced activation in HEK293 cells; type: cell-based; settings: selectivity control, endogenous receptor
T1 construct: endogenous in cells; host or cells: HEK293
Procedure: HEK293 cells were transfected with 55 ng/well rat NK1R with N-terminal HA. 11 epitope tag (HA-NK1R) or CLR plus RAMP1 and 40 ng/well FRET biosensors. FRET was assessed 48 h after transfection, following serum restriction (0.5% FBS overnight). For experiments using clathrin or dynamin siRNA, cells were transfected with 55 ng/well rat HA-NK1R, 40 ng/well FRET biosensor and 25 nM/well scrambled, clathrin or dynamin ON-TARGETplus SMARTpool siRNA (GE Dharmacon). FRET was assessed 72 h after transfection, following serum restriction (0.5% FBS overnight). Cells were equilibrated in HBSS at 37° C. and FRET was analyzed using a GE Healthcare INCell 2000 Analyzer. For GFP/RFP emission ratio analysis, cells were sequentially excited using a FITC filter (490/20) with emission measured using dsRed (605/52) and FITC (525/36) filters, and a polychroic optimized for the FITC/dsRed filter pair (Quad4). For CFP/YFP emission ratio analysis, cells were sequentially excited using a CFP filter (430/24) with emission measured using YFP (535/30) and CFP (470/24) filters, and a polychroic optimized for the CFP/YFP filter pair (Quad3). Cells were imaged every 1 min, allowing image capture of 14 wells per minute. Baseline emission ratio images were captured for 4 min. […] Data were analyzed as described and expressed as emission ratios relative to baseline for each cell (F/F0). […]

[3] = Stability in the spinal cord after intrathecal injection to mice; type: in vivo, mouse; settings: 10 μM, 5 μl, spinal cord after 3 hours
Procedure: To assess stability in cerebrospinal fluid, spantide or Compound 1 (10 μg/ml) was incubated in human cerebrospinal fluid (0-4 h, 37° C.), and then snap frozen. Proteins were precipitated using ACN. To assess stability in the spinal cord, spantide or Compound 1 was injected intrathecally to mice (10 μM, 5 μl, L3/L4). After 3 hours, a spinal cord segment 5 mm on either side the injection site was removed and snap frozen. Tissues were crushed with a glass rod in a mixture of methanol (30 μl) and EDTA/KF (60 μl, 0.1 M EDTA, 4 g/l KF), vortexed and centrifuged to remove lipids. Peptides were extracted from the pellet with 0.5% formic acid in 75% ACN/H2O (100 μl). Samples were analyzed assayed by LC/MS using a Waters Xevo TQ or TQD triple quadrupole mass spectrometer coupled to a Waters UPLC. Peptides were separated by HPLC (Supelco Ascentis Express Peptide ES C18 column, 50×2.1 mm, 2.7 μm) with 0.05% formic acid in H2O and ACN as solvents. Peptides were quantified by comparison to calibration standards (50-50,000 ng/ml).

[4] = 30 μM, preincubated 10 min, SP 1 μM, 2 min
[5] = 1 μM for 60 min, washed, 60 min antagonist-free, then SP

T1 sequence (P07550 whole entry): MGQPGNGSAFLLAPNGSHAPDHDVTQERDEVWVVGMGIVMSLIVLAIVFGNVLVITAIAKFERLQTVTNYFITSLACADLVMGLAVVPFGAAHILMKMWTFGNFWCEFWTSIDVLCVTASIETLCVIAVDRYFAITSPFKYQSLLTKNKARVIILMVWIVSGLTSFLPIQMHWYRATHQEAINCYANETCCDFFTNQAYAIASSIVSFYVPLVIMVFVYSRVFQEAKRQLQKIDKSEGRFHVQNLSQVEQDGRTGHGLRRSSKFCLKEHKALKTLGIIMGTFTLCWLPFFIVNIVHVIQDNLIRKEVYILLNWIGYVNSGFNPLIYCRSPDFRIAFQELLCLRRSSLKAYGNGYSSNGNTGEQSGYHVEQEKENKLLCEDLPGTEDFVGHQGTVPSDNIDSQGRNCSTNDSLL

## O=C(N/N=C/c1cc(O)c(O)cc1O)c1cc2ccccc2cc1O [Dy4]
[1]
  effect on paw withdrawal responses of the uninjected right hind paw: did not affect
[2]; [4]
  effect on initial SP-evoked excitation: did not affect the initial excitation
  effect on sustained action potential discharge after SP removal: prevented the sustained action potential discharge
[2]; slices of rat spinal cord
  effect on glutaminergic primary afferent synaptic transmission and synaptic rundown: did not affect

## CC(=O)N[C@@H](CC(=O)O[C@H]1CC[C@@]2(C)[C@@H](CC[C@@H]3[C@@H]2CC[C@]2(C)[C@@H]([C@H](C)CCCC(C)C)CC[C@@H]32)C1)C(=O)NCCOCCOCCOCCOCCC(=O)NCCOCCOCCOCCC(=O)NCCOCCOCCOCCOCCC(=O)N[C@H](CCCNC(=N)N)C(=O)N1CCC[C@H]1C(=O)N[C@@H](CCCCN)C(=O)N1CCC[C@H]1C(=O)N[C@@H](CCC(N)=O)C(=O)N[C@@H](CCC(N)=O)C(=O)N[C@H](Cc1c[nH]c2ccccc12)C(=O)N[C@@H](Cc1ccccc1)C(=O)N[C@H](Cc1c[nH]c2ccccc12)C(=O)N[C@@H](CC(C)C)C(=O)N[C@@H](CC(C)C)C(N)=O [Compound 1] (Ac-D(X1)[PEG4][PEG3][PEG4][dR]PKPQQ[dW]F[dW]LL-NH2)
β2-adrenergic receptor
  effect on isoprenaline-induced activation of nuclear ERK: did not affect
[2]; [5]
  effect on initial SP-evoked excitation: did not suppress the initial excitation
  effect on sustained action potential discharge after SP removal: prevented the action potential discharge
[2]; 1 μM for 60 min, washed, 60 min antagonist-free, then SP, P>0.05
  SP-evoked firing rate, response at 2 min: 196.6±81.6 events. 2 min^−1
[3]
  stability after intrathecal injection to mice: stable

Source: patent US11324832B2, “Tripartite modulators of endosomal G protein-coupled receptors” (Endosome Therapeutics, Inc., priority 2015, dated 2022)
